Experimental data reported in publication PMC4627826, “Synthesis and Biological Evaluation of Novel Gigantol Derivatives as Potential Agents in Prevention of Diabetic Cataract” (PLoS ONE, 2015).
Read-outs that look alike come from different tables or passages of the source.

Tests used:
aldose reductase (AR) = target: T1, aldose reductase (AR) (Homo sapiens, UniProt P15121); assay: AR inhibition assay (NADPH absorbance decrease at 340 nm, DL-glyceraldehyde substrate); type: biochemical; details: for IC50: mean ± SD (n = 3), NA = no activity
T1 construct: purchased Prospec-TanyTechnogene Ltd. (Israel)
Method: AR was purchased from Prospec-TanyTechnogene Ltd. (Israel). AR activity was evaluated as previously described. Briefly, the reaction mixture was composed of enzyme solution ([…], 20 μL), NADPH (0.104 mmol·L^-1, 50 μL; Italian Roth, Italy), DL-glyceraldehyde (10 mmol·L^-1, 50 μL; Sigma, U.S.), buffer phosphate (0.1 mol·L^-1), and selected concentrations of test compounds. The reaction was initiated by the addition of DL-glyceraldehyde as the substrate, and PBS was used as the blank control. The use of NAPDH, in parallel to AR activity, was monitored at room temperature for 10 min at 40 s intervals at 340 nm in an EnSpire™ Multimode Plate Reader. […] All assays were performed in triplicate.

[1] = test system: human lens epithelial cells (HLECs; SRA 01/04); assay: Cell viability (MTT) of HLECs treated with D-galactose; type: cell-based; details: for protection of HLECs from apoptosis (concentration not given): D-galactose-induced, tested at 0.1, 0.5, 1.0 μg·mL^-1
Method: Human lens epithelial cells (HLECs; SRA 01/04) were obtained from Dr. Fu Shang, USDA HNRCA at Tufts University, Boston, MA, U.S. and Zhongshan Ophthalmic Center, Sun Yat-sen University, Guangzhou, P. R. China and cultured in minimal essential medium (MEM) supplemented with 20% fetal bovine serum (FBS) and a cocktail of Penicillin-Streptomycin at 37°C in a humid environment containing 5% CO2 [52]. Cells were harvested at 80% confluency by trypsinization, and then fresh culture medium was added to generate single-cell suspensions for use in cell viability assays. HLECs were then seeded in 96-well cell culture grade microplates at a density of 1 × 10^5·mL^-1. After 24 h of incubation, the cells were treated for 72 h with 250 mmol·L^-1 D-galactose with and without test compounds (0.1, 0.5, or 1.0 μg·mL^-1).
Cell viability was assessed using an MTT assay. After the treatments, 20 μL of 5 mg·mL^-1 MTT solution was added to each well, followed by incubation for 4 h at 37°C. The resulting formazan crystals were then dissolved in 150 μL DMSO and absorbance measured at 570 nm using an EnSpire™ Multimode Plate Reader. The results are presented as percentages of cell survival as compared to the untreated control group, and all assays were performed in triplicate.

[2] = target: inducible nitric oxide synthase (iNOS) (Homo sapiens, UniProt P35228); assay: iNOS inhibition assay (Nitric Oxide Synthase Assay Kit, NO production); type: biochemical; details: mean ± SD (n = 3); NA = no activity; read-out: IC50, inhibitory effect on iNOS activity
Method: iNOS produces NO by catalyzing a reaction involving L-Arg and oxygen. Its activity was assessed by monitoring NO production using a Nitric Oxide Synthase Assay Kit (Nanjing Jiancheng Bioengineering Institute, China), which was developed based on the method of Fröhlich et al.. […] All assays were performed in triplicate.

[3] = read-out: IC50, inhibitory effect on AR activity
[4] = compound at 0.1 μg·mL^-1, 250 mmol·L^-1 D-galactose, 72 h
[5] = compound at 0.5 μg·mL^-1, 250 mmol·L^-1 D-galactose, 72 h
[6] = compound at 1.0 μg·mL^-1, 250 mmol·L^-1 D-galactose, 72 h

COc1cc(CCc2ccc(O)c(OC)c2)cc(OC)c1 [Compound 14d, 4-(3,5-dimethoxyphenethyl)-2-methoxyphenol]
IC50 (aldose reductase (AR); [3]): 39.2 ± 2.13 µM

COc1ccc(CNc2nc3ccccc3s2)c(O)c1 [Compound 17c, 2-((benzo[d]thiazol-2-ylamino)methyl)-5-methoxyphenol]
IC50 (aldose reductase (AR); [3]): 243 ± 5.67 µM
protection of HLECs from apoptosis (concentration not given) [1]: protected HLECs from apoptosis
protection of HLECs from D-galactose-induced apoptosis [1, 4]: protected HLECs from apoptosis
melting point: 184.3 to 185.7 °C

COc1cc(CCc2cccc(OC)c2O)ccc1O [Compound 14b, 4-(2-hydroxy-3-methoxyphenethyl)-2-methoxyphenol]
IC50 (aldose reductase (AR); [3]): 126 ± 1.3 µM
protection of HLECs from apoptosis (concentration not given) [1]: protected HLECs from apoptosis
protection of HLECs from D-galactose-induced apoptosis [1, 4]: protected HLECs from apoptosis
IC50 [2]: 433.6 ± 4.23 µM

COc1ccc(CCNC(=O)Cc2ccc(O)cc2)cc1OC [Compound 25, N-(3,4-dimethoxyphenethyl)-2-(4-hydroxyphenyl)acetamide]
IC50 (aldose reductase (AR); [3]): 54.4 ± 2.39 µM
melting point: 151.7 to 153.2 °C

Cc1ccc(S(=O)(=O)Nc2ccc(O)cc2)cc1 [Compound 23, N-(4-hydroxyphenyl)-4-methylbenzenesulfonamide]
IC50 (aldose reductase (AR); [3]): 5.02 ± 2.57 µM

COc1cc(CCc2cc(OC)cc(OC)c2)cc(OC)c1 [Compound 4, 1,2-bis(3,5-dimethoxyphenyl)ethane]
IC50 (aldose reductase (AR); [3]): 347 ± 3.74 µM
melting point: 104.6 to 107.9 °C

Oc1cc(O)cc(CCCc2ccc(F)cc2)c1 [Compound 21, 5-(3-(4-fluorophenyl)propyl)benzene-1,3-diol]
IC50 (aldose reductase (AR); [3]): 556.3 ± 4.37 µM

COc1cc(O)cc(CCc2ccc(O)c(OC)c2)c1 [Compound 14f, 4-[2-(3-hydroxy-5-methoxyphenyl)ethyl]-2-methoxyphenol]
IC50 (aldose reductase (AR); [3]): 176 ± 3.21 µM
IC50 [2]: 680.1 ± 3.28 µM

COc1cc(CCc2cc(Cl)ccc2O)ccc1O [Compound 14e, 4-chloro-2-(4-hydroxy-3-methoxyphenethyl)phenol]
IC50 (aldose reductase (AR); [3]): 21.8 ± 5.47 µM

COc1cc(O)cc(CCc2cccc3ccccc23)c1 [Compound 10, 3-methoxy-5-(2-(naphthalen-1-yl)ethyl)phenol]
IC50 (aldose reductase (AR); [3]): 31.2 ± 1.51 µM
potency in AR inhibition relative to synthetic gigantol (compound 14f) (aldose reductase (AR); more potent than 14f): 9 fold
cell survival (viability) of HLECs against D-galactose-induced apoptosis ([1]; 250 mmol·L^-1 D-galactose, 72 h, MTT, compounds at 0.1, 0.5 or 1.0 μg·mL^-1, percentage of Con): 72.26%
protection of HLECs from apoptosis (concentration not given) [1]: protected HLECs from apoptosis
protection of HLECs from D-galactose-induced apoptosis [1, 5]: protected HLECs from apoptosis
IC50 [2]: 1189 ± 3.31 µM
melting point: 103.9 to 106.7 °C

COc1cc(O)cc(CCc2ccc(O)c(OC)c2)c1 [Extractive gigantol, 4-[2-(3-hydroxy-5-methoxyphenyl)ethyl]-2-methoxyphenol, reference compound]
IC50 (aldose reductase (AR); [3]): 2517 ± 10.3 µM
protection of HLECs from apoptosis (concentration not given) [1]: protected HLECs from apoptosis
protection of HLECs from D-galactose-induced apoptosis [1, 6]: protected HLECs from apoptosis
IC50 [2]: 32.2 ± 2.61 µM

COc1ccc(CCNCc2ccc(O)cc2)cc1OC [Compound 17b, 4-((3,4-dimethoxyphenethylamino)methyl)phenol]
IC50 (aldose reductase (AR); IC50, inhibitory effect on AR activity): 174 ± 3.38 µM
melting point: 116.7 to 118.6 °C

CN(C)c1ccc(CCc2cc(O)cc(O)c2)cc1 [Compound 8]
IC50 (aldose reductase (AR); [3]): 513.4 ± 2.33 µM
protection of HLECs from apoptosis (concentration not given) [1]: protected HLECs from apoptosis
protection of HLECs from D-galactose-induced apoptosis [1, 6]: protected HLECs from apoptosis
melting point: 152.5 to 154.1 °C

COc1cc(CCc2cc(OC)c(O)c(OC)c2)ccc1O [Compound 14a, 4-(4-hydroxy-3-methoxyphenethyl)-2,6-dimethoxyphenol]
IC50 (aldose reductase (AR); [3]): 17.3 ± 1.72 µM

Oc1cc(O)cc(CCc2cc(O)cc(O)c2)c1 [Compound 5, 5,5'-(ethane-1,2-diyl)dibenzene-1,3-diol5,5'-(ethane-1,2-diyl)dibenzene-1,3-diol]
IC50 (aldose reductase (AR); [3]): 288.8 ± 2.16 µM
protection of HLECs from apoptosis (concentration not given) [1]: protected HLECs from apoptosis
protection of HLECs from D-galactose-induced apoptosis [1, 5]: protected HLECs from apoptosis
IC50 [2]: 432.6 ± 2.37 µM
melting point: 245.9 to 248.1 °C

COc1cc(CCc2ccc(O)c(O)c2)ccc1O [Compound 14c, 4-(4-hydroxy-3-methoxyphenethyl)benzene-1,2-diol]
IC50 (aldose reductase (AR); [3]): 534 ± 5.44 µM
